Patent publication US20080306146A1, “Dosing Regimens for Cox-2 Inhibitor” (AMOREPACIFIC CORPORATION, priority 2005, published 2008)
Blank lines part the entries; values can stand above or below the compound they belong to.

How the values were obtained:
[1] = tested on: adjuvant-induced arthritis in male Lewis rats; details: cited from earlier work
[2] = tested on: carrageenan-induced thermal hyperalgesia in male SD rats; details: orally administered; cited from earlier work
[3] = plasma pharmacokinetics in healthy male subjects, multiple dose (loading plus daily maintenance dose, 8 days); type: in vivo, human
Source text: By assuming an elimination half-life of 4 to 5 days for Compound A, were designed multiple dosing regimens by which steady state plasma concentrations of Compound A are rapidly reached and maintained throughout the dosing period. […] Although only two examples of dosing regimens involving a combination of loading dose and daily maintenance dose are provided in Table 3, it is not intended to limit the dosing regimens of this invention only to those provided in Table 3. Obviously, variations in the loading dose and consequent the daily maintenance dose levels may be conceived depending on indications of subjects. For example a loading dose of 2 mg may be used in combination with a daily maintenance dose of about 0.25 mg/day.
The dosing regimens of the instant invention were tested in healthy human male subjects. Table 4 provides mean pre-dose plasma levels of Compound A following oral administrations of capsule drug products containing Compound A according to either Regimen A or Regimen B of Table 3 daily once for 8 days. In both dosing regimens, the pre-dose plasma levels remained almost constant.

clinical = details: male, human, plasma, po
[4] = plasma pharmacokinetics in healthy male subjects, single oral dose of capsule drug product

SMILES: COc1ccc2c(c1)c(CC(=O)O)c(C)n2C(=O)c1ccc(Cl)cc1 [indomethacin, reference compound]
- ED50 by adjuvant-induced arthritis [1]: 0.3 mg/kg/day
- ED50 in carrageenan-induced thermal hyperalgesia [2]: ~1.0 mg/kg

- Mean Pre-dose Plasma Level ([3]; Regimen A (3 mg loading, 0.4 mg/day maintenance), Day 2): 3.8 ng/mL
- drug accumulation from the multiple dosings ([3]; Regimen A and Regimen B, daily once for 8 days): no suggestions of drug accumulation
- Mean Pre-dose Plasma Level ([3]; Regimen A, Day 1 (before loading dose)): 0 ng/mL
- Mean Pre-dose Plasma Level ([3]; Regimen A, Day 3): 4.2 ng/mL
- Mean Pre-dose Plasma Level ([3]; Regimen A, Day 4): 4.0 ng/mL
- Mean Pre-dose Plasma Level ([3]; Regimen A, Day 5): 4.7 ng/mL
- Mean Pre-dose Plasma Level ([3]; Regimen A, Day 6): 4.5 ng/mL
- Mean Pre-dose Plasma Level ([3]; Regimen A, Day 7): 3.6 ng/mL
- Mean Pre-dose Plasma Level ([3]; Regimen A, Day 8): 3.6 ng/mL
- Mean Pre-dose Plasma Level ([3]; Regimen A, Day 9 (no dose)): 4.0 ng/mL
- Mean Pre-dose Plasma Level ([3]; Regimen B (6 mg loading, 0.8 mg/day maintenance), Day 2): 6.2 ng/mL
- Mean Pre-dose Plasma Level ([3]; Regimen B, Day 1 (before loading dose)): 0 ng/mL
- Mean Pre-dose Plasma Level ([3]; Regimen B, Day 3): 6.2 ng/mL
- Mean Pre-dose Plasma Level ([3]; Regimen B, Day 4): 6.3 ng/mL
- Mean Pre-dose Plasma Level ([3]; Regimen B, Day 5): 6.5 ng/mL
- Mean Pre-dose Plasma Level ([3]; Regimen B, Day 6): 6.3 ng/mL
- Mean Pre-dose Plasma Level ([3]; Regimen B, Day 7): 6.6 ng/mL
- Mean Pre-dose Plasma Level ([3]; Regimen B, Day 8): 7.1 ng/mL
- Mean Pre-dose Plasma Level ([3]; Regimen B, Day 9 (no dose)): 6.6 ng/mL
- half-life ([3]; male, human, plasma, oral, Regimen A and Regimen B, after 8 days of daily once dosing, read-out: mean elimination half-lives following the last dosing): 96 to 120 h
- half-life (clinical): 77 to 135 h
- Cmax (clinical; 1 mg): 1.65 ng/mL
- Cmax (clinical; 5 mg): 7.82 ng/mL
- Cmax (clinical; 8 mg): 13.3 ng/mL
- Cmax (clinical; 12 mg): 18.1 ng/mL
- Terminal Elimination Half-life ([4]; single oral dose 5 mg (Group 2)): 118 ± 66 h
- Terminal Elimination Half-life ([4]; single oral dose 8 mg (Group 3)): 77 ± 8 h
- Terminal Elimination Half-life ([4]; single oral dose 12 mg (Group 4)): 135 ± 24 h
SMILES: CC1(C)OC(c2ccc(S(N)(=O)=O)cc2)=C(c2cccc(F)c2)C1=O [Compound A, 5-{4-(aminosulfonyl)phenyl}-2,2-dimethyl-4-(3-fluorophenyl)-3(2H)furanone]
- ED50 by adjuvant-induced arthritis [1]: 0.1 mg/kg/day
- ED50 in carrageenan-induced thermal hyperalgesia [2]: 0.25 mg/kg
- dose dependence of Cmax ([4]; single oral dose 1 to 12 mg): increased essentially dose proportionally
